Here are results for four molecules from patent publication US10913932B2, “Maturation of mammalian hepatocytes” (Takara Bio Europe AB, priority 2015, dated 2021).

In series [1] the test system is ChiPSC4-derived hepatocytes. The series is described as follows: CYP activity assay, Example 4, basic protocol B. The conditions noted are these: single compounds 0.2-5 μM or combinations, from day 21 onwards, Collagen I-Fibronectin-based coating, day 29, FIG. 2 A-D. How it is done:
(§1) On day 29 and 36 of the differentiation protocol, the cell cultures are subjected to a CYP activity assay according to the following protocol: Cells are washed twice with warm Williams's medium E w/o phenol red (+0.1% PEST). Then CYP activity assay, consisting of warm Williams medium E w/o phenol red (+0.1% PEST), 2 mM L-Glutamine, 25 mM HEPES, 10 μM Phenacetin (model substrate for CYP1A), 10 μM Bupropion (model substrate for 2B6), 10 μM Diclofenac (model substrate for CYP2C9), 10 μM Bufuralol (model substrate for 2D6), and 5 μM Midazolam (model substrate for CYP3A), is added to the cells (e.g. 110 μl/cm^2) and incubated for 16 hr at 37° C. Then 100 μl of the supernatant is transferred into a 96 well plate which is sealed with a tight seal tape and stored at −80° C. until LC/MS-analysis of metabolite formation: Acetaminophen (Paracetamol) for CYP1A, OH-Bupropion for CYP2B6, OH-Diclofenac for CYP2C9, OH-Bufuralol for CYP2D6, and OH-Midazolam for CYP3A. […]
On day 29 of the differentiation protocol, the cell cultures are subjected to a CYP activity assay according to the protocol described in Example 3. In some experiments, 50 μM Mephenytoin (model substrate for 2C19) was included additionally to the substrates mentioned above and then the formation of the metabolite OH-Mephenytoin was measured by LC/MS in order to determine CYP2C19 activity.

The subject of series [2] is hiPS cell-derived hepatocytes. The series is described as follows: CYP activity assay (LC/MS metabolite formation), Example 3, basic protocol A. As to conditions: single compounds, 0.2-50 μM, from day 21 onwards, Fibronectin-based coating, day 29 and 36, FIG. 1. Here is the method: Following the basic protocol A, hiPS cell derived hepatocytes cultured on a Fibronectin-based coating were treated with 0.5 or 5 μM 10Z-Heptadecenoic acid, 0.5 or 5 μM Arachidonic acid, 5 μM Calcifediol, 5 μM Calcitriol, 0.2 or 0.5 μM Cholecalciferol, 5 or 50 μM CGP 52608, 0.5 or 5 μM Docosahexaenoic acid, 0.5, 1.25, 2.5, 5, or 10 μM PP1, 0.5 or 5 μM PP2, 0.5 or 5 μM D-erythro-Sphingosine, or 0.5 or 5 μM Tetradecanoic acid from day 21 of the differentiation protocol and onwards (FIG. 1).
as §1, with “C.” for “C. Then 100 μl of the supernatant is transferred into a 96 well plate which is sealed with a tight seal tape and stored at −80° C. until LC/MS-analysis of metabolite formation: Acetaminophen (Paracetamol) for CYP1A, OH-Bupropion for CYP2B6, OH-Diclofenac for CYP2C9, OH-Bufuralol for CYP2D6, and OH-Midazolam for CYP3A.”

A further series has as its system OATP1B1. Description: OATP1B1 mRNA expression levels. As to conditions: protocol B plus compound compared to protocol A; day 36; protocol B alone also increases; FIG. 2 F. In kind it is cell-based, human.

Procedure for OATP1B1: Following the basic protocol B, ChiPSC4-derived hepatocytes cultured on a Collagen I-Fibronectin-based coating were treated with 0.5 μM 10Z-Heptadecenoic acid, 0.5 μM Arachidonic acid, 0.5 μM Calcitriol, 5 μM CGP 52608, 0.2 μM Cholecalciferol, 5 μM PP1, 0.5 μM D-erythro-Sphingosine, 0.2 μM 13 cis-RA, 0.5 μM L-erythro MAPP, 0.5 μM PAF C16, 0.5 μM C16 Ceramide, or different combinations of these compounds from day 21 of the differentiation protocol and onwards (FIG. 2).

In the case of `CC1=C(/C=C/C(C)=C/C=C/C(C)=C\C(=O)O)C(C)(C)CCC1` [13 cis-RA, 13-cis-retinoic acid], in series [1], the CYP activity levels result is “increase CYP activity levels”.

In the case of `CC(C)(C)n1nc(-c2ccc(Cl)cc2)c2c(N)ncnc21` [PP2, 3-(4-chlorophenyl) 1-(1,1-dimethylethyl)-1H-pyrazolo[3,4-d]pyrimidin-4-amine], the CYP activity levels result in series [2] was “increase CYP activity levels”.

As to `CCCCCC/C=C\CCCCCCCCC(=O)O` [10Z-Heptadecenoic acid, 10Z-heptadecenoic acid], in the series with OATP1B1, the “OATP1B1 mRNA levels” value was “increase”.

`C=C1CC[C@H](O)C/C1=C/C=C1\CCC[C@]2(C)[C@@H]([C@H](C)CCCC(C)C)CC[C@@H]12` [Cholecalciferol, cholecalciferol]: the CYP activity levels result in series [1] and in series [2] was “increase CYP activity levels” throughout.
